Entries after “also recorded” stand apart in the source; their conditions may differ. Where a name gives a salt, the structure may show the parent alone.

This note sets out measurements from PMC10955247, “In vivo screening for toxicity-modulating drug interactions identifies antagonism that protects against ototoxicity in zebrafish” (Frontiers in Pharmacology, 2024).

Series [1] relates to zebrafish lateral line hair cells. Description: PEPITA quantification of ototoxicity in YO-PRO-1-stained AB zebrafish larvae. The series is classed as in vivo. The following applies: for interaction with neomycin in pairwise screen (wEOB): pairwise screen of NEO against 13 compounds; for ototoxic interaction with AZM: co-administration with AZM; for shift toward antagonism in lateral line HC damage as compared to inhibition of the bacterial species on average: interaction with AZM, zebrafish wEOB vs average of E. coli, M. abscessus, S. aureus; for EC75 shift: ototoxin co-administered with azithromycin (AZM) vs administered alone; for ototoxic interaction with clarithromycin (CLM): preliminary experiments; for HC inhibition: in the absence of AZM, 25 μM CAP, 600 μM CIS; for EC50 shift: ototoxin co-administered with AZM vs alone. On the procedure:
Therefore, at 5 dpf, larvae were transferred to 12-well plates (5–11 fish per well, 1 well per condition) containing the relevant compound or combination diluted with ICS water, or ICS water alone or high-dose neomycin to serve as controls. Unless otherwise noted, fish were exposed to drug (either an individual compound or a pairwise combination of compounds) for 4 h, as a balance between longer exposure times for accommodating varied kill kinetics and shorter exposure times for technical tractability. Treatments with multiple drugs involved co-administering a prepared solution consisting of both drugs with defined concentrations in ICS water.
Fluorescence microscopy was performed using a Keyence BZ-X800 microscope imaging system, which enables high-throughput semi-automated imaging of 96-well plates.
Each image was masked using automated object detection to include only the fish itself. Manual masks were created on occasion for avoidance of fluorescent contamination, adjusted segmenting for myo6b::gfp fish to remove inner ear HC fluorescence, or exclusion of dead or damaged fish. Each fish was then adjusted for autofluorescence using the fluorophore-free red channel and scored based on the sum of green fluorescence pixel values surrounding 10 of the top 15 brightest pixels in the masked image (Figures 1B–E). These scores were standardized by comparison with the median score of wells containing untreated fish and a score representing no remaining HC fluorescence, both derived for each plate.
Wells where the expected response ( Ra×Rb ) and observed response ( Rab ) were both less than 10% or greater than 90% were excluded from aggregation to reduce the effect of our choice of dose range. The remaining wells were summarized by averaging into a composite interaction score for the combination; we refer to this metric as the “windowed excess over Bliss” (wEOB).

Series [2] concerns MET channel. The series is described as follows: FM1-43 uptake quantification in lateral line HCs (MET channel activity). The series is classed as in vivo, Danio rerio. As to conditions: AZM 190 µM, BZM 50 µM, 30 min, myo6b::gfp larvae. The method, then:
FM1-43 experiments were performed with myo6b::gfp fish, raised to 5 dpf as above. Fish were exposed to drug conditions for 30 min, with 4 µM FM1-43 stain added into the drug treatment solution at minute 29, for a 1-min co-treatment stain exposure followed by simultaneous washout of all drugs and stain in fish water and anesthesia in 675 µM tricaine (selection of staining concentration and exposure duration was informed by ([Hernandez et al., 2006]; [Van Trump et al., 2010]; [Thomas et al., 2013]; [Monroe et al., 2016]; [Hailey et al., 2017]; [Majumder et al., 2017]; [Rocha-Sanchez et al., 2018]; [Stawicki et al., 2019]; [Parkinson and Stawicki, 2021]; [Lee et al., 2022]; [Derudas et al., 2023]; [Schrauwen et al., 2023])). Four to seven fish per condition were transferred to 96-well plates for imaging. Using the Keyence BZ-X800 with GFP filter and a custom filter (605/70 nm emission, 470/40 nm excitation), each fish was imaged with a ×2 objective in brightfield and green and red fluorescence channels as above. FM1-43 uptake was validated using benzamil, a known uptake inhibitor ([Rusch et al., 1994]).

For series [3], the system named is zebrafish lateral line hair cells. The series is described as follows: Uptake of TexasRed-conjugated neomycin (NEO-TR) into lateral line HCs. As to conditions: for accumulation of NEO-TR within lateral line HCs: NEO-TR 50 μM, 30 min, co-administered AZM 190 µM or BZM 50 µM, myo6b::gfp larvae; for Details (uptake inhibitor mechanism): Table S1, by means other than MET channel inhibition (this study). It counts as in vivo, Danio rerio. The source says:
To further explore the mechanism of macrolide and aminoglycoside antagonism, we fluorescently labeled the aminoglycosides neomycin and gentamicin with Texas Red-X succinimidyl ester to track HC uptake with and without macrolide treatment (Table 1). To avoid breakdown of fluorescent vital dyes over time, we used larvae with the transgene Tg(myo6b:EGFP); myo6b::gfp, that expressed GFP in their HCs. Drug-induced injury was quantified by loss of fluorescence in HCs. Fish were exposed to the fluorescently-labeled drug with or without macrolide co-administration for 30 min, before being washed in fresh ICS water and anesthetized with 675 µM tricaine. Five fish per condition were transferred to 96-well plates for imaging, as per the drug response testing experiments, while another five were euthanized on ice for 20 min, then fixed in 2% paraformaldehyde for 1 hour at room temperature, to prepare for confocal microscopy. Samples were prepared and GFP fluorescence was acquired following the same confocal imaging procedure as described in Section 2.3; TexasRed fluorescence was acquired with a 595 nm laser and 675/75 emission filter.
For the fish transferred to 96-well plates for imaging, fluorescence microscopy was performed using the Keyence BZ-X800. Using the GFP filter and a TexasRed Filter (630/75 nm emission, 560/40 nm excitation), each myo6b::gfp fish was imaged under a ×2 objective to capture the whole organism in brightfield, green, and red fluorescence channels. Each fish was then imaged under a ×40 objective with z-stacking to track the uptake of the fluorescently labeled aminoglycoside into the HCs in the head of the fish.

Series [4] has the same test system. Description: Lateral line hair cell intracellular calcium imaging and cell death. It counts as in vivo. From the text: For calcium testing, zebrafish expressing HC-specific GCaMP targeted to the inner mitochondrial matrix were crossed with fish expressing a HC specific calcium indicator to create double-transgenic embryos (Tg (myo6b:mitoGCaMP3;myo6b:cytoRGECO), Table 1) with both green fluorescent mitochondrial calcium and red fluorescent cytosolic calcium indicators, then raised as described previously ([McQuate et al., 2023]). Zebrafish embryos were collected from 2-h spawning periods and raised in Petri dishes in embryo medium (EM: 14.97 mM NaCl, 500 μM KCl, 42 µM Na2HPO4, 150 µM KH2PO4, 1 mM CaCl2 dehydrate, 1 mM MgSO4, 0.714 mM NaHCO3, pH 7.2) at a density of 60 larvae per […] dish, in a dark 28.5°C incubator until 5 dpf. Larvae were screened for indicator expression at 4 dpf.
Calcium imaging was performed using an inverted Marianas spinning disk confocal system (Intelligent Imaging Innovations, 3i) with an Evolve 10 MHz EMCCD camera (Photometrics) and a Zeiss C-Apochromat 63x/1.2 numerical aperture water objective. Larvae were 5-6 dpf at the time of imaging. Larvae were first anesthetized in embryo media containing 800 µM tricaine, then stabilized on their sides under a harp, so that posterior neuromasts were exposed to the surrounding media. Imaging was performed at ambient temperature, approximately 25°C. GCaMP fluorescence was acquired with a 488 nm laser and 535/30 emission filter, with an exposure time of 100 ms, and RGECO fluorescence was acquired with a 561 nm laser and 617/73 emission filter and exposure time of 200 ms. Images were taken every 2 minutes as z-stacks through neuromasts in 2 µm steps. Neomycin and azithromycin were dissolved as a 4X stock in EM (described in Section 2.1: Zebrafish Husbandry), then added to the bath to achieve final working concentration after a 10-min baseline. Imaging of neuromasts continued for 50 min. Images were analyzed in ImageJ. Mean fluorescence intensity was measured for ROIs of individual randomly selected HCs (2–3 HCs per NM, see example ROI in Figure 4). For each HC, values were normalized to the average of baseline using Microsoft Excel.

Regarding `NC(=NCc1ccccc1)NC(=O)c1nc(Cl)c(N)nc1N` [BZM, Benzamil], in series [1], the “interaction with neomycin in pairwise screen (wEOB)” value is recorded as “deviate toward antagonism”. For the same molecule, in series [2], the “FM1-43 uptake into lateral line HCs” value is “does significantly reduce FM1-43 uptake; also recorded: significant inhibition of FM1-43 uptake”. Moreover, the “accumulation of NEO-TR within lateral line HCs” value in series [3] is “inhibition of NEO-TR uptake”.

With `NC[C@H]1O[C@H](O[C@H]2[C@H](O)[C@@H](O[C@H]3O[C@H](CO)[C@@H](O)[C@H](N)[C@H]3O)[C@H](N)C[C@@H]2N)[C@H](O)[C@@H](O)[C@@H]1O` [Kanamycin (KAN), Kanamycin sulfate], in series [1], the “ototoxic interaction with AZM” value is recorded as “otoprotective antagonistic interactions”, the “shift toward antagonism in lateral line HC damage as compared to inhibition of the bacterial species on average” value turned out to be 45 %pt, the EC75 shift is given as >16-fold and the “ototoxic interaction with clarithromycin (CLM)” value (shortened to “ototoxic interaction … (CLM)”) is listed as “antagonistic interactions”.

Consider `CC[C@H]1OC(=O)[C@H](C)[C@@H](O[C@H]2C[C@@](C)(OC)[C@@H](O)[C@H](C)O2)[C@H](C)[C@@H](O[C@@H]2O[C@H](C)C[C@H](N(C)C)[C@H]2O)[C@](C)(O)C[C@@H](C)CN(C)[C@H](C)[C@@H](O)[C@]1(C)O` [Azithromycin, Azithromycin dihydrate], for which the “RFU remaining on average” value in series [1] (380µM AZM alone, aggregate dose response, AB and myo6b::gfp fish) was “Approximately 65%”. For the same molecule, in series [1] (1 h (acute) and 4 h (extended) treatment, conditions in which monotherapy induced significant damage), the “protection against NEO and GEN ototoxicity by co-administration” value is on record as “significant protection”. For the same molecule, in series [1] (AZM 380 μM, NEO 0 μM, 4 h), the “RFU (residual HC fluorescence)” value worked out at 48%. Moreover, in series [1] (capreomycin), the “protection from CAP-associated damage by co-administration” value is recorded as “significant but less pronounced protection”. In addition, the “protection against damage caused by higher doses of CIS by co-administration” value in series [1] (cisplatin) is given as “significant but modest protection”. The “interaction with neomycin in pairwise screen (wEOB)” value in series [1] is reported as “one of the strongest antagonizing compounds”. Moreover, in series [2] (listed as AZM), the “FM1-43 uptake into lateral line HCs” value is “does not significantly hinder FM1-43 uptake; also recorded: did not significantly change FM1-43 accumulation in HCs”. Also, in series [3] (listed as AZM), the “accumulation of NEO-TR within lateral line HCs” value is reported as “inhibition of NEO-TR uptake; also recorded: reduced HC accumulation of NEO-TR”. The “Details (uptake inhibitor mechanism)” value in series [3] is recorded as “Prevents neomycin uptake”. In series [4] (NEO 50 µM, AZM 190 µM, calcium imaging), the “HC cell death (observation)” value is given as “low levels of cell death”. Moreover, the “HC mitochondrial and cytoplasmic calcium response” value in series [4] (NEO 50 µM, AZM 190 µM, mitoGCaMP3, cytoRGECO larvae) is recorded as “occasionally observed increases in mitochondrial calcium”. Besides, in series [4] (calcium imaging), the cells that survived is reported as 24/25.

As to `N.N.[Cl][Pt][Cl]` [Cisplatin (CIS), Cisplatin], in series [1], the HC inhibition came to 81%, the EC50 shift is listed as 1.4 fold and the EC75 shift is listed as 1.8-fold. In series [1] (listed as CIS), the EC75 shift amounted to 1.8 fold.

Take `NCC[C@H](O)C(=O)N[C@@H]1C[C@H](N)[C@@H](O[C@H]2O[C@H](CN)[C@@H](O)[C@H](O)[C@H]2O)[C@H](O)[C@H]1O[C@H]1O[C@H](CO)[C@@H](O)[C@H](N)[C@H]1O` [Amikacin (AMK), Amikacin sulfate]: in series [1], the “ototoxic interaction with AZM” value was “otoprotective antagonistic interactions”, the “shift toward antagonism in lateral line HC damage as compared to inhibition of the bacterial species on average” value is given as 31 %pt, the EC75 shift is 8-fold and the “ototoxic interaction … (CLM)” value was “antagonistic interactions”.

`CC[C@H]1OC(=O)[C@H](C)[C@@H](O[C@H]2C[C@@](C)(OC)[C@@H](O)[C@H](C)O2)[C@H](C)[C@@H](O[C@@H]2O[C@H](C)C[C@H](N(C)C)[C@H]2O)[C@](C)(O)C[C@@H](C)C(=O)[C@H](C)[C@@H](O)[C@]1(C)O` [Erythromycin]: in series [1] (macrolide co-administered with aminoglycosides), the “otoprotection against aminoglycoside ototoxicity during co-administration” value is recorded as “antagonistic otoprotection broadly against aminoglycoside ototoxicity”. Further, the “Details (uptake inhibitor mechanism)” value in series [3] is reported as “Prevents neomycin uptake”.

For the molecule `NC[C@H]1O[C@H](O[C@H]2[C@H](O)[C@@H](O[C@H]3O[C@H](CO)[C@@H](O)[C@H](N)[C@H]3O)[C@H](N)C[C@@H]2N)[C@H](N)C[C@@H]1O` [Tobramycin (TOB), Tobramycin], in series [1], the “ototoxic interaction with AZM” value was “otoprotective antagonistic interactions”, the “shift toward antagonism in lateral line HC damage as compared to inhibition of the bacterial species on average” value is given as 15 %pt and the EC75 shift is recorded as >16-fold.

For `CNC(C)C1CCC(N)C(OC2C(N)CC(N)C(OC3OCC(C)(O)C(NC)C3O)C2O)O1` (stereo not shown) [Gentamicin (GEN), Gentamicin sulfate], in series [1], the “ototoxic interaction with AZM” value is recorded as “otoprotective antagonistic interactions”, the “shift toward antagonism in lateral line HC damage as compared to inhibition of the bacterial species on average” value was 37 %pt, the EC75 shift is on record as 13-fold and the “ototoxic interaction … (CLM)” value was “antagonistic interactions”.

As to Capreomycin sulfate [Capreomycin (CAP)], in series [1], the HC inhibition is listed as 90%, the EC50 shift came out at 1.9 fold and the EC75 shift is recorded as 2.8-fold. Also, the EC75 shift in series [1] (listed as CAP) was 2.8 fold.
